The subject of one experiment is E. coli ATCC 25992. The experiment is described as follows: In vitro MIC, agar dilution. It counts as cell-based. The procedure, abridged: (§1)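 Agar dilution on Mueller-Hinton plates: spots of roughly 10^4 cfu of log-phase bacteria were placed on agar containing serial two-fold compound dilutions, from a 128 μg/mL top working level to ≤0.25 μg/mL, each in duplicate. After 16-20 hours at 35-36° C, the lowest growth-inhibiting concentration was taken as the MIC.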
(In general: In agar dilution, organisms are placed on agar that contains the substance at set levels.)

A further experiment deals with E. faecalis ATCC 29212. The experiment is described as follows: In vitro MIC, agar dilution. Format: cell-based. The procedure, abridged:
as §1

For the next experiment, the system named is E. faecalis VanB(Van^R). Briefly: In vitro MIC, agar dilution. It counts as cell-based. The method, boiled down:
as §1

The subject of another experiment is E. faecium A491(Amp^R). The experiment is described as follows: In vitro MIC, agar dilution. Format: cell-based. The procedure, abridged:
as §1

The test system of the next experiment is E. faecium ATCC 35667. Briefly: In vitro MIC, agar dilution. Format: cell-based. The method, boiled down: as §1
The test system of the next experiment is E. faecium VanA(Van^R). Briefly: In vitro MIC, agar dilution. Format: cell-based. The method, boiled down:
as §1

In the next experiment the test system is P. aeruginosa ATCC 27853. The experiment is described as follows: In vitro MIC, agar dilution. It counts as cell-based. The procedure, abridged: as §1
Experiment [1] deals with S. aureus 76(Meth^R)(lac^+). Briefly: In vitro MIC, agar dilution. Format: cell-based. The method, boiled down: as §1
In experiment [2] the test system is S. aureus ATCC 13709(Meth^S). The experiment is described as follows: In vitro MIC, agar dilution. Format: cell-based. The procedure, abridged: as §1
The next experiment relates to S. aureus ATCC 29213. Briefly: In vitro MIC, agar dilution. It counts as cell-based. The method, boiled down:
as §1

In experiment [3] the test system is S. aureus ATCC 33593(Meth^R). The experiment is described as follows: In vitro MIC, agar dilution. Format: cell-based. The method, boiled down: as §1
The test system of experiment [4] is S. aureus PC1(Meth^S)(lac^+). Briefly: In vitro MIC, agar dilution. It counts as cell-based. The method, boiled down:
as §1

Experiment [5] relates to S. aureus Spain #356(Meth^R). Briefly: In vitro MIC, agar dilution. Format: cell-based. The procedure, abridged:
as §1

Experiment [6] has as its system S. haemolyticus 05(Meth^R). Briefly: In vitro MIC, agar dilution. Format: cell-based. The procedure, abridged:
as §1

The test system of experiment [7] is S. aureus Col(Meth^R)(lac^-). The experiment is described as follows: In vitro MIC, agar dilution. It counts as cell-based. The procedure, abridged:
(§2)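 Two-fold dilutions (128 to ≤0.25 μg/mL, in duplicate) were poured into Mueller-Hinton agar. Log-phase broth cultures were spot-inoculated at about 10^4 cfu per spot and incubated 35-36°C for 16-20 hours; the MIC was the lowest concentration inhibiting growth. Col is a high-level PBP2a producer; Col 8A is its isogenic PBP2a-lacking partner.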

Experiment [8] has as its system S. aureus Col8A(Meth^S)(lac^-). The experiment is described as follows: In vitro MIC, agar dilution. Format: cell-based. As to conditions: S. aureus Col8A(Meth^S)(lac^-). The method, boiled down:
as §2

Experiment [9] deals with S. aureus strain ATCC 13709 (methicillin-susceptible). Briefly: Murine model for lethal bacteremic peritonitis. Format: in vivo, female Swiss-Webster mice. Details: ED50: unit: mg/kg. As to conditions: SC, 72 h; for ED50: two equal doses, IP challenge. The procedure, abridged:
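Female Swiss-Webster mice were challenged IP with an LD100 inoculum in 7% hog gastric mucin, then given test drug subcutaneously in twofold increments (0.01–512 mg/kg) as two equal doses at challenge and 2 h later, 10 mice per group. Survival was scored at 72 h; PD50 (total mg/kg) was derived by probit.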

The mark [10] stands for this setting: Enterococcus faecium, read-out: minimum inhibitory concentration (MIC).
Where [11] appears, read: Staphylococcus aureus, read-out: minimum inhibitory concentration (MIC).

Structures can show the parent of a compound that is named as a salt. Where two headings read alike, the source gives them in different places. Some results are limits rather than exact numbers.

By ED50 is commonly meant the dose that gives a 50% effect, or the effect in half of the subjects. Take `Nc1nc(/C(=N/O)C(=O)N[C@@H]2C(=O)N3C(C(=O)O)=C(Sc4ccncc4CSC4CCNC4)CS[C@H]23)cs1` (stereo partly drawn) [Cmpd 17, (7R)-7-[(Z)-2-(aminothiazol-4-yl)-2-(hydroxyimino)acetamido]-3-[3-(3-pyrrolidinothiomethyl)pyrid-4-ylthio]-3-cephem-4-carboxylate, trifluoroacetic acid salt]: the MIC in the experiment on E. coli ATCC 25992 (Escherichia coli, ATCC25992, read-out: minimum inhibitory concentration (MIC)) was 2 µg/mL; in the experiment with E. faecalis ATCC 29212 (Enterococcus faecalis, ATCC29212, read-out: minimum inhibitory concentration (MIC)), 0.13 µg/mL; in the experiment on E. faecalis VanB(Van^R) (Enterococcus faecalis, read-out: minimum inhibitory concentration (MIC)), 0.5 µg/mL; with E. faecium A491(Amp^R) (setting [10]), more than 32 µg/mL; with E. faecium ATCC 35667 (Enterococcus faecium, ATCC35667, read-out: minimum inhibitory concentration (MIC)) it was 1 µg/mL; with E. faecium VanA(Van^R) (setting [10]), 0.25 µg/mL. Besides, the MIC in the experiment on P. aeruginosa ATCC 27853 (Pseudomonas aeruginosa, ATCC27853, read-out: minimum inhibitory concentration (MIC)) is more than 32 µg/mL; in experiment [1] (setting [11]), 4 µg/mL; in [2] (Staphylococcus aureus, ATCC13709, S. aureus ATCC 13709(Meth^S), read-out: minimum inhibitory concentration (MIC)) it was 0.25 µg/mL; with S. aureus ATCC 29213 (Staphylococcus aureus, ATCC29213, read-out: minimum inhibitory concentration (MIC)) it was 0.25 µg/mL; in [3] (Staphylococcus aureus, ATCC33593, read-out: minimum inhibitory concentration (MIC)) it was 2 µg/mL; in experiment [4] (setting [11]) it was 0.25 µg/mL. The MIC in experiment [5] (setting [11]) was 4 µg/mL; in experiment [6] (Staphylococcus haemolyticus, read-out: minimum inhibitory concentration (MIC)), 8 µg/mL; in experiment [7] (setting [11]) it was 2 µg/mL; in experiment [8] (setting [11]) it was 0.5 µg/mL. Moreover, in experiment [9] (Staphylococcus aureus, ATCC13709, Dose 0.3125 mg/kg, read-out: Survivors), the responders at 0.3125 mg/kg was 20%. In addition, the responders at 0.625 mg/kg in [9] (Staphylococcus aureus, ATCC13709, Dose 0.625 mg/kg, read-out: Survivors) stood at 20%. For the same compound, the responders at 1.25 mg/kg in experiment [9] (Staphylococcus aureus, ATCC13709, Dose 1.25 mg/kg, read-out: Survivors (converted)) is 50%. The responders at 2.5 mg/kg in experiment [9] (Staphylococcus aureus, ATCC13709, Dose 2.5 mg/kg, read-out: Survivors) was found to be 30%. In addition, the responders at 5 mg/kg in experiment [9] (Staphylococcus aureus, ATCC13709, Dose 5 mg/kg, read-out: Survivors) stood at 60%. In [9] (Staphylococcus aureus, ATCC13709, read-out: ED50), the ED50 came to 3.59 mg/kg.
With “(7R)-7-[(Z)-2-(aminothiazol-4-yl)-2-(hydroxyimino)acetamido]-3-[(methylaminoethylaminoethylthiomethyl)-1,2,3-thiadiazol-5-ylthio]-3-cephem-4-carboxylate, trifluoroacetic acid salt [Cmpd 11]”, the “minimum inhibitory concentration (MIC)” value in the experiment on E. coli ATCC 25992 was 8 µg/mL; in the experiment with E. faecalis ATCC 29212, 0.25 µg/mL; with E. faecalis VanB(Van^R) it was 0.5 µg/mL; with E. faecium A491(Amp^R), more than 32 µg/mL; in the experiment with E. faecium ATCC 35667, 2 µg/mL; with E. faecium VanA(Van^R), 4 µg/mL. Besides, the “minimum inhibitory concentration (MIC)” value was more than 32 µg/mL in the experiment on P. aeruginosa ATCC 27853; 8 µg/mL in [1]; 0.5 µg/mL in experiment [2] (S. aureus ATCC 13709(Meth^S)); 0.5 µg/mL in the experiment with S. aureus ATCC 29213; 4 µg/mL in experiment [3]; 1 µg/mL in experiment [4]. The “minimum inhibitory concentration (MIC)” value in experiment [5] was 8 µg/mL; in experiment [6] it was 4 µg/mL; in experiment [7], 4 µg/mL; in experiment [8], 1 µg/mL. Moreover, the Survivors is on record as 1/10 in experiment [9] (Dose 0.156 mg/kg); 1/10 in experiment [9] (Dose 0.3125 mg/kg); 3/10 in experiment [9] (Dose 0.625 mg/kg); 5/10 in [9] (Dose 1.25 mg/kg); 6/10 in experiment [9] (Dose 2.5 mg/kg). In [9], this compound came in with an ED50 of 0.96 mg/kg.

The values are drawn from patent publication US6087355A, “Cephalosporin antibiotics” (Microcide Pharmaceuticals, Inc., priority 1996, dated 2000).
